Results published in patent US20200282009A1, “METHODS OF TREATING DISEASES ASSOCIATED WITH VASCULAR SMOOTH MUSCLE CELL PROLIFERATION” (BioLineRx Ltd., priority 2017, published 2020).

Columns and labels:
Format in all cases: cell-based, human
[1] = test system: SK-N-BE(2) cells; experiment: Cell proliferation assay with CXCL12
Method: (§1) Cells were seeded at 2×10^4 cells/1 ml per well into a 24-well plate in medium supplemented with 0.1% FCS with or without various concentrations of CXCL12 (PeproTech EC). On days 2, 4 and 7, cells were harvested, stained with propidium iodide (PI, Sigma), and the number of viable cells was determined using FACS analysis.

[2] = test system: Shy-SY5Y cells; experiment: Cell proliferation assay with CXCL12; conditions: CXCL12 500 ng/ml
Method: as §1

[3] = test system: SK-N-BE(2) cells; experiment: Soft agar colony assay; conditions: CXCL12 100 ng/ml, 14 days
Method: An agar base layer was prepared as follows: 45 mL RPMI plus 12% FCS was mixed with 15 mL RPMI 32 plus 12% FCS and 15 mL 2.5% agar in double-distilled water. The tumor cells were suspended in RPMI plus 10% FCS. Cell suspension was mixed in a ratio of 1:3 with the agar base solution. This mixture was then plated on top of a preformed solid agar base. CXCL12 (100 ng/mL) or BL-8040 (20 μM) or anti-CXCR4 (1 μg/ml) were added to the mixture. Fourteen days later, the number of colonies was counted in 10 different fields.

[4] = test system: SK-N-BE(2)-CXCR4 cells; experiment: Cell survival assay (PI staining, FACS); conditions: SK-N-BE(2)-CXCR4 compared to native cell line; 0-10 μM, 24 hours
Method: A total of 1×10^5 cells/mL were cultured in 24-well plates with […] RPMI 1640 medium supplemented with 10% FCS. 24 hours later, the medium was changed to RPMI 1640 supplemented with either 1% FCS, with BL-8040 or AMD3100 or ABT199. Then 24 hours later, the cells were harvested, washed, and stained with PI (Sigma). The number of live cells was counted and analyzed using FACS analysis.
In order to stably overexpress CXCR4, SK-N-BE(2) cells were transduced with the lentiviral bicistronic vector harboring a CXCR4 expression cassette. This was done using a three-plasmid system: pHR′-CMVCXCR4-IRES-GFP-WPRE; envelope coding plasmid VSV-G and a packaging construct CMVDR8.91 according to previously published protocol (23). For transduction of SK-N-BE(2) cells, 1 ml of viral supernatant was used, which is equivalent to an m.o.i. of ˜9.

[5] = test system: BCL-2 and CCND1 in SK-N-BE(2) cells; experiment: qPCR of target genes after miR transfection
Method: cDNA was synthesized from 0.5-1 μg total RNA using the Quanta Biosciences qScript™ cDNA Synthesis Kit (95047-100) for mRNA analysis, and using the qScript™ microRNA cDNA Synthesis Kit (95107-100) for miRNAs analysis. Quantiative PCR (qPCR) of miRNAs and mRNA was performed using the CFX384, C1000 touch thermal cycler (Bio-Rad) and a SYBR Green PCR Kit: Quanta Cat. #84018 and #84071, respectively. The fold expression and statistical significance were calculated using the 2-ΔΔ Ct method. All experiments were performed in triplicate.
Transfections were performed using Lipofectamine 2000 transfection reagent (Invitrogen) according to the manufacturer's protocol. Plasmids were purchased from Dharmacon. MiR-15a: miRIDIAN microRNA hsa-miR-15a-5p mimic. MiR-16-1: miRIDIAN microRNA hsa-miR-16-5p mimic. Negative control miR: miRIDIAN microRNA inhibitor negative control. AntagomiR-15a: miRIDIAN microRNA hsa-miR-15a-5p hairpin inhibitor. AntagomiR-16-1: miRIDIAN microRNA hsa-miR-16-5p hairpin inhibitor. AntagomiR negative control: miRIDIAN microRNA hairpin inhibitor negative control 1. All miRNA-mimics and antagomiRs were transfected at 50 nM or 100 nM. To determine the efficiency of transfection, at 48 hours post-transfection, the cells were analyzed for RNA.

CXCL12: the ligand of CXCR4 (PeproTech EC)
proliferation with CXCL12 [1]: no response | proliferation with CXCL12 [2]: increased proliferation | colony formation with CXCL12 [3]: high colony formation ability

CC1(C)CCC(CN2CCN(c3ccc(C(=O)NS(=O)(=O)c4ccc(NCC5CCOCC5)c([N+](=O)[O-])c4)c(Oc4cnc5[nH]ccc5c4)c3)CC2)=C(c2ccc(Cl)cc2)C1 [ABT-199, reference compound]
resistance to the BCL-2 inhibitor (viability) [4]: high resistance

miR-16-1: miRIDIAN microRNA hsa-miR-16-5p mimic (guide TAGCAGCACGTAAATATTGGCG; mimic duplex; passenger strand missing)
level of both target genes (BCL-2 and CCND1) after transfection [5]: reduction
